Laboratory results: patent publication US10066004B2 (ARIZONA CANCER THERAPEUTICS, LLC, priority 2010, dated 2018)
Where two headings read alike, the source gives them in different places. Positions of bridges follow the written chain, without caps; N, C: chain ends. Non-standard residues stand in square brackets, D forms with d. Residues, ends and D or L forms follow the SMILES beside them. No end group written: not given here. R8 = C=CCCCCCC[C@@](C)(N)C(=O)O; S5 = C=CCCC[C@](C)(N)C(=O)O

Legend:
Ecyl EGFR peptide = assay: ITC binding experiments
GBM tumors = assay: In vivo tumor growth, daily subcutaneous injections of SAH-EJ1; set-up: species or system mice; conditions: 10 mg/kg daily subcutaneous, vs control mouse
Text: (§1) EGFR is amplified or mutated in more than 40% of glioblastoma multiforme (GBM) tumors. Referring to FIG. 13-14, inhibitor peptides of the present invention were used to treat GBM cells and tumors.

[1] = system: patient-derived glioma lines (BT145, BT147, GB16, GB7, GB42); assay: Viability of patient-derived GBM cells; format: cell-based
Text: FIG. 13A and FIG. 13B show treatment of patient-derived GBM cells with various EGFR inhibitor peptides.
as §1

CaMKII = CaMKII phosphorylation, immunoblot in MDA-MB-468 cells; format: cell-based; conditions: MDA-MB-468, EGF or ionomycin, 15 minutes
Method: (a) MDA-MB-468 cells were treated with either 20 μmol/l CP (A-D) or 20 μmol/l EJ1 (E-H) for 0 minutes (A, E), 15 minutes (B, F), 60 minutes (C, G), or 16 hours (D, H). […] (b) BxPC3 cells were serum starved overnight, then treated with 20 μmol/l EJ1 and 50 ng/ml Texas-Red-labeled EGF, and imaged for 30 minutes with an Olympus IX71 deconvolution microscope. Panels A-F are bright field images, D′-F′ are red channel images (Texas-Red-labeled EGF). […] (c) Diagram depicts Ca^2+/CaM-regulated signaling pathway, and inhibitors acting at different targets are indicated. (d) MDA-MB-468 cells were pretreated with 50 μmol/l W-13 (D-F), 10 μmol/l ML-7 (G-I), or 10 μmol/l Y-27632 (J-L) in complete medium at 37° C. for 30 minutes and then treated with vehicle, 20 μmol/l CP, or 20 μmol/l EJ1 in combination with W-13, ML-7, or Y-27632 in complete medium at 37° C. for 15 minutes. Images represent the bright field images. […] Error bars, mean±SD. (f) MDA-MB-468 cells were either in serum-free medium (SF) or stimulated with 100 ng/ml EGF (EGF) and then incubated with water (Vehicle), 20 μmol/l CP, 20 μmol/l EJ1, 2 μmol/l ionomycin, 50 μmol/l W-13, 100 μmol/l KN-93, or EJ1 in combination with ionomycin for 15 minutes. Lysates were immunoblotted with antibodies as indicated. […] Error bars, mean±SD. […]

SKOV3 cells = assay: MTT killing of erbB2 positive ovarian cancer cells, one hour treatment; format: cell-based
Method: The erbB2 positive ovarian cancer cell line, SKOV3 was treated with SAH5-EJ1 for one hour with concentrations between 10 uM and 40 uM.

Peptide solubility = format: physicochemical
Method: The EJ peptides were synthesized by GenScript (Scotch Plains, N.J.), delivered lyophilized, and stored at −20° C. Peptides were resuspended as needed at 1 mmol/1 in water and stored for up to 2 weeks at 4° C. EJ1 peptide sequences are shown conjugated to the PTD4 domain ([…] (SEQ ID NO: 110)) in FIG. 6c.

AsPC1 cells = conditions: human, 3 day, 20 μmol/l
Method: (§2) Peptide designations are indicated in the right column. Changes from EJ1 in EJ2-11 are denoted in the second column from the right. (d-j) Cell lines were treated daily with 20 μmol/l EJ1, 20 μmol/l CP, or vehicle (water) for 3 days unless otherwise noted, and cell viability was determined by the MTT assay. Growth rates for vehicle-treated cells were set to 100%, and CP and EJ1 rates were adjusted accordingly. *P<0.05, **P<0.01, ***P<0.001 (Student's t-test). Error bars, mean±SD. (From Hart et al., 2013, Molecular Therapy 21(11):1996-2007, the disclosure of which is incorporated herein in its entirety.)
(§3) Protein lysate preparation, immunoprecipitation, and western blotting were performed as described previously. For cross-linking, cells were first incubated according to manufacturer instructions with 3 μmol/l DMS, a membrane-permeable, noncleavable, cross-linking agent (Thermo Scientific, Waltham, Mass.). Cells were analyzed both by the MTT assay following manufacturer's instructions (Sigma) and using a U-Quant Spectrophotometer (Bio-TEK Instruments, Winooski, Vt.).

T47D cells = conditions: human, 3 day, 20 μmol/l
Method: as §2, §3

MDA-MB-231 cells = conditions: human, 3 day, 20 μmol/l
Method: as §2, §3

MIA PaCa-2 cells = conditions: human, 3 day, 20 μmol/l
Method: as §2, §3

MDA-MB-468 cells = conditions: MDA-MB-468, 20 uM peptide, 3 days (FIG. 1)
Method: Inhibitor peptides were evaluated on their ability to inhibit growth of triple-negative breast cancer cells MDA-MB-468 (20 uM peptide treatment). […] SEQ ID NO: 13 is […] SEQ ID NO: 14 is […] SEQ ID NO: 15 is […] SEQ ID NO: 16 is […] SEQ ID NO: 17 is […] SEQ ID NO: 18 is […] SEQ ID NO: 19 is […] SEQ ID NO: 20 is […] SEQ ID NO: 21 is […] SEQ ID NO: 22 is […] SEQ ID NO: 23 is […] SEQ ID NO: 24 is […] SEQ ID NO: 25 is […]
as §2
To do this, we created cell-penetrating peptides to act as dominant-negative “decoys,” thereby inhibiting endogenous jxm interactions. Peptides specific for jxm subdomains were synthesized downstream of the protein transduction domain-4 (PTD4; FIG. 6). Next, the effect of peptide treatment on cell viability was analyzed on the breast cancer cell line MDA-MB-468 by MTT (3-[4,5-dimethylthiazol-2-yl]-2,5-diphenyl tetra-zolium bromide) analysis after 3 days of treatment.
as §3

[2] = system: MMTV-pyMT murine model of breast cancer; assay: Tumor growth and lung metastasis in MMTV-pyMT transgenic mice; format: in vivo, mouse; conditions: 20 μg/g body weight i.p. daily
Method: (a) MMTV-PyMT mice were allowed to develop tumors of 50 mm^3 before being treated once daily (i.p. injection) with indicated doses of Ctrls (20 μg/g CP5 (n=3), PBS (n=2)) and EJ1 (10 μg/g (n=6), 15 μg/g (n=1), and 20 μg/g (n=7), or twice-daily doses of 40 μg/g (n=3)). Peaks represent average total tumor burden growth rate in mm^3 per day for each treatment. Error bars, mean±SD. *P<0.05; **P<0.005, Student's t-test. (b) Control (12 mice (20 μg/g CP5 (n=5), PBS (n=7), n=100 tumors) vs. 20 μg/g EJ1-treated (eight mice, n=72 tumors) individual tumor growth rates and representative tumor images (insets). Mean denoted by horizontal line. **P<0.005, Student's t-test. (c) Mice were treated with 10, 15, or 20 μg/g body weight EJ1 or control for 21 days and tumors were measured twice weekly. Box plots are shown for day 0 (10 μg/g EJ1: n=6 mice, 21 tumors; 15 μg/g EJ1: n=1 mouse, two tumors; 20 μg/g EJ1: n=8 mice, 24 tumors; Ctrls: n=12 mice, 41 tumors) and final day (10 μg/g EJ1: n=6 mice, 46 tumors; 15 μg/g EJ1: n=1 mouse, nine tumors; 20 μg/g EJ1: n=8 mice, 72 tumors; Ctrls: n=12 mice, 100 tumors). […]
Additionally, many resected EJ1-treated tumors were necrotic in appearance compared with those in controls (FIG. 11b (insets)). […] The MMTV-pyMT transgenic mice present with lung metastasis; we therefore evaluated the effects of EJ1 on lung metastasis. […]

Compound CC[C@H](C)[C@H](NC(=O)[C@H](Cc1c[nH]cn1)NC(=O)[C@H](CCCNC(=N)N)NC(=O)[C@H](CCCNC(=N)N)NC(=O)[C@H](CCCNC(=N)N)NC(=O)[C@H](CCSC)NC(=O)[C@H](Cc1ccccc1)NC(=O)[C@H](C)NC(=O)[C@H](CCCNC(=N)N)NC(=O)[C@H](C)NC(=O)[C@H](CCC(N)=O)NC(=O)[C@H](CCCNC(=N)N)NC(=O)[C@H](C)NC(=O)[C@H](C)NC(=O)[C@H](C)NC(=O)[C@H](CCCNC(=N)N)NC(=O)[C@H](C)NC(=O)[C@@H](N)Cc1ccc(O)cc1)C(=O)N[C@]1(C)CCCCCCC=CCCC[C@@](C)(C(=O)N[C@@H](CC(C)C)C(=O)N[C@@H](CC(C)C)C(=O)N[C@@H](CCC(N)=O)C(=O)N[C@@H](CCC(=O)O)C(=O)N[C@@H](CCCNC(=N)N)C(=O)N[C@@H](CCC(=O)O)C(=O)O)NC(=O)[C@H](CCCNC(=N)N)NC(=O)[C@H](CC(C)C)NC(=O)[C@H]([C@@H](C)O)NC(=O)[C@H](CCCNC(=N)N)NC(=O)[C@H](CCCCN)NC(=O)[C@H](CCCNC(=N)N)NC1=O [SAH-EJ1] (H-YARAAARQARAFMRRRHI[R8]RKRTLR[S5]LLQERE-OH; staple 19-26; N-terminus and C-terminus assumed) has a Kd (Ecyl EGFR peptide; 100 uM and 150 uM experiments, read-out: Kd, average of both experiments) of roughly 2850 nM, a Kd (Ecyl EGFR peptide; peptide at 100 uM, target at 500 uM, read-out: Kd) of 2500 nM and a Kd (Ecyl EGFR peptide; peptide at 150 uM, target at 500 uM, read-out: Kd) of 3200 nM. For the same compound, the “tumor growth in vivo” value (GBM tumors) was “growth of the tumor is reduced”, the “tumor growth in vivo” value (GBM tumors; listed as stapled EJ) was “decrease tumor growth” and the “cell viability of patient-derived glioma lines” value ([1]; BT145 and BT147 (FIG. 13A)) was “decrease in viability”. For the same compound, the “cell viability of patient-derived glioma lines” value ([1]; GB16, GB7, GB42 and BT147, 24 hr treatment (FIG. 13B)) was “decrease in viability”.
In the case of C[C@H](CCC(=O)O)C[C@H](C)C[C@H](C)C(=O)/C=C(\O)[C@H](C)C[C@H](C)C/C=C/[C@@H](C)[C@@H](O)[C@@H](C)[C@@H](O)C[C@@H]1CC[C@@](C)([C@H]2CC[C@@](C)([C@@H](C)O)O2)O1 [ionomycin], the CaMKII phosphorylation (CaMKII) is reported as “induced CaMKII phosphorylation”.
With “SAH5-EJ1: stapled EJ1: PTD4 domain combined with SEQ ID NO: 103 (YARAAARQARAFMRRRHIVRKR[R8]LRRLLQ[S5]RE; staple 23-30 (inferred))” the “concentration inducing optimal cell killing” value (SKOV3 cells; SKOV3, one hour of treatment) was 5.0 to 10.0 µM and the “cell killing (MTT)” value (SKOV3 cells; SKOV3, one hour, 10 uM to 40 uM) was “all cells were killed”.
For YARAAARQARAFMAAAHIVAAATLAALLQERE [EJ8], the solubility of peptide (Peptide solubility) was “insoluble”.
With YARAAARQARAFMRRRHIVRKRTLRRLLQERE [EJ1] the “reduction of cellular viability” value (AsPC1 cells) was 10%, the “reduction of cellular viability” value (T47D cells) was 60% and the “reduction of cellular viability” value (MDA-MB-231 cells) was 10%. The “reduction of cellular viability” value (MIA PaCa-2 cells) was 1%, the “survival rate of cells after 3 days” value (MDA-MB-468 cells) was 5% and the “toxicity (weight loss, grooming behavior, gross changes to organs upon necropsy)” value [2] was “no toxicity”.
